Data as given in patent US20230331675A1, “AROMATIC ETHYLENE COMPOUND AND PREPARATION METHOD THEREFOR, AND INTERMEDIATE, PHARMACEUTICAL COMPOSITION, AND APPLICATION THEREOF” (GUANGZHOU MAXINOVEL PHARMACEUTICALS CO., LTD., priority 2020, published 2023).

Molecular target: PD-1/PD-L1 (Homo sapiens (Human), UniProt Q9NZQ7)
Assay: Homogeneous time-resolved fluorescence (HTRF) binding assay
Details: CisBio kit, read-out: IC50 of compounds binding to PD-1/PD-L1
From the text: Effect embodiment 1: Homogenouse time-resolved fluorescence
Homogeneous time-resolved fluorescence (HTRF) binding assay was used to determine the binding ability of the compound of the present disclosure to PD-1/PD-L1.
The purchased kit (CisBio, #64CUS000C-1) contained reagents required for assays such as PD-1, PD-L1, anti-tag1-Eu, Anti-tag2-XL665, dilute buffer, and detection buffer.
1. The compound was formulated to 10 concentrations with a 3-fold gradient with 100% DMSO.
2. The DMSO solution of the compound was added to the dilute buffer, mixed thoroughly, then transferred to a 96-well plate.
3. PD-L1 was diluted with dilute buffer, then added to the above 96-well plate.
4. PD-1 was diluted with dilute buffer and added to the above 96-well plate, which was then incubated at room temperature for 30 minutes.
5. A portion of anti-tag1-Eu and a portion of anti-tag2-XL665 were added to the detection buffer, mixed thoroughly and transferred to the above 96-well plate.
6. The mixture in the above 96-well plate was incubated at room temperature for 1 to 24 hours.
7. HTRF values were read with Envision.

Sequence of PD-1/PD-L1 (Q9NZQ7 19-238): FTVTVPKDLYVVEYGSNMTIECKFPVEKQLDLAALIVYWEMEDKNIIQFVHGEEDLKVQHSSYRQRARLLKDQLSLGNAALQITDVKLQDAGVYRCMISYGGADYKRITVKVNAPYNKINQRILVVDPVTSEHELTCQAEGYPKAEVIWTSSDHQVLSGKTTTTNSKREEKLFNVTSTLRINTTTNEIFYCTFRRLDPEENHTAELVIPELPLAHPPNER

With `[2H]C([2H])([2H])Oc1cc(/C=C/c2cccc(-c3ccccc3)c2C)c(Cl)cc1CN1CCCC[C@H]1C(=O)O` [Compound 59, (S,E)-1-(5-Chloro-2-(methoxy-d3)-4-(2-(2-methyl-[1,1′-biphenyl]-3-yl)vinyl)benzyl)piperidine-2-carboxylic acid] as the compound, how does the IC50 read?
The IC50 was 8.9 nM.

For `Cc1cc(CN2CCOC[C@H]2C(=O)O)c(OCCO)cc1/C=C/c1cccc(-c2ccccc2)c1C#N` [Compound 30, (S,E)-4-(4-(2-(2-Cyano-[1,1′-biphenyl]-3-yl)vinyl)-2-(2-hydroxyethoxy)-5-methylbenzyl)morpholine-3-carboxylic acid], which IC50 is on record?
Its IC50 is 7.7 nM.

How did the IC50 turn out when “(S,E)-1-(2-((3-Iodobenzyloxy)-5-methyl-4-(2-(2-methyl-[1,1′-biphenyl]-3-yl)vinyl)benzyl)piperidine-2-carboxylic acid [Compound 75]” was run?
The IC50 was 28.4 nM.

With `COc1cc(/C=C/c2cccc(-c3ccccc3)c2C#N)c(Cl)cc1CN1CCCC[C@H]1C(=O)O` [Compound 57, (S,E)-1-(5-Chloro-4-(2-(2-cyano-[1,1′-biphenyl]-3-yl)vinyl)-2-methoxybenzyl)piperidine-2-carboxylic acid] as the compound, how does the IC50 read?
Its IC50 is 4.4 nM.

How did the IC50 turn out when `COc1cc(/C=C/c2cccc(-c3ccccc3)c2C)c(C)cc1CN1CCCC[C@H]1C(=O)O` [Compound 70, (S,E)-1-(2-Methoxy-5-methyl-4-(2-(2-methyl-[1,1′-biphenyl]-3-yl)vinyl)benzyl)piperidine-2-carboxylic acid] was run?
The IC50 was 9.31 nM.

With `COCCOc1cc(/C=C/c2cccc(-c3ccccc3)c2C#N)c(C)cc1CN1CCOC[C@H]1C(=O)O` [Compound 25, (S,E)-4-(4-(2-(2-Cyano-[1,1′-biphenyl]-3-yl)vinyl)-2-(2-methoxyethoxy)-5-methylbenzyl)morpholine-3-carboxylic acid] as the compound, how does the IC50 read?
Its IC50 is 9.1 nM.

How did the IC50 turn out when `COc1cc(/C=C/c2cccc(-c3ccccc3)c2C)c(C(F)(F)F)cc1CN1CCCC[C@@H]1C(=O)O` [Compound 62, (R,E)-1-(2-Methoxy-4-(2-(2-methyl-[1,1′-biphenyl]-3-yl)vinyl)-5-trifluoromethylbenzyl)piperidine-2-carboxylic acid] was run?
The IC50 was 7.42 nM.

Which IC50 does the source give for `Cc1cc(/C=C/c2cccc(-c3ccccc3)c2C#N)c(Cl)cc1CN1CCN(C(N)=O)C[C@H]1C(=O)O` [Compound 29, (S,E)-4-Carbamoyl-1-(5-chloro-4-(2-(2-cyano-[1,1′-biphenyl]-3-yl)vinyl)-2-methylbenzyl)piperazine-2-carboxylic acid] here?
The IC50 was 62 nM.

Which IC50 does the source give for `N#Cc1c(/C=C/c2cc(CO)c(CN3CCCC[C@H]3C(=O)O)cc2C(F)(F)F)cccc1-c1ccccc1` [Compound 20, (S,E)-1-(4-(2-(2-Cyano-[1,1′-biphenyl]-3-yl)vinyl)-2-hydroxymethyl-5-trifluoromethylbenzyl)piperidine-2-carboxylic acid] here?
Its IC50 is 3.7 nM.

`N#Cc1c(/C=C/c2cc(CO)c(CN3CCNC[C@H]3C(=O)O)cc2C(F)(F)F)cccc1-c1ccccc1` [Compound 28, (S,E)-1-(4-(2-(2-Cyano-[1,1′-biphenyl]-3-yl)vinyl)-2-hydroxymethyl-5-trifluoromethylbenzyl)piperazine-2-carboxylic acid] was tested. Which IC50 did it give?
The IC50 was 135 nM.

`Cc1cc(/C=C/c2cccc(-c3ccccc3)c2C#N)c(Cl)cc1CN1CCNC[C@H]1C(=O)O` [Compound 13, (S,E)-1-(5-Chloro-4-(2-(2-cyano-[1,1′-biphenyl]-3-yl)vinyl)-2-methylbenzyl)piperazine-2-carboxylic acid] was tested. Which IC50 did it give?
The IC50 was 46 nM.

Which IC50 does the source give for “(S,E)-2-((5-Chloro-2-(2-(2-cyano-[1,1′-biphenyl]-3-yl)vinyl)-4-(3-methylsulfonyl)propoxy)benzyl)amino)-3-hydroxy-2-methylpropionic acid [Compound 38]” here?
Its IC50 is 298 nM.

How did the IC50 turn out when `[2H]C([2H])([2H])c1c(/C=C/c2cc(CN[C@@](C)(CO)C(=O)O)ccc2C(F)(F)F)cccc1-c1ccccc1` [Compound 55] was run?
The IC50 was 29.5 nM.

For `Cc1cc(/C=C/c2cccc(-c3ccccc3)c2C#N)c(Cl)cc1CN1CCN(C)C[C@H]1C(=O)O` [Compound 14, (S,E)-1-(5-Chloro-4-(2-(2-cyano-[1,1′-biphenyl]-3-yl)vinyl)-2-methylbenzyl)-4-methylpiperazine-2-carboxylic acid], which IC50 is on record?
The IC50 was 85.2 nM.

With `COc1cc(/C=C/c2cccc(-c3ccccc3)c2Cl)c(C(F)(F)F)cc1CN1CCCC[C@H]1C(=O)O` [Compound 71, (S,E)-1-(4-(2-(2-Chloro-[1,1′-biphenyl]-3-yl)vinyl)-2-methoxy-5-trifluoromethylbenzyl)piperidine-2-carboxylic acid] as the compound, how does the IC50 read?
Its IC50 is 0.68 nM.

`Cc1cc(OCCCCC#N)c(CN2CCCC[C@H]2C(=O)O)cc1/C=C/c1cccc(-c2ccccc2)c1C#N` [Compound 39, (S,E)-1-(5-(2-(2-Cyano-[1,1′-biphenyl]-3-yl)vinyl)-2-(4-cyanobutoxy)-4-methylbenzyl)piperidine-2-carboxylic acid] was tested. Which IC50 did it give?
The IC50 was 172 nM.

How did the IC50 turn out when `Cc1cc(CN2CCCC[C@H]2C(=O)O)c(OCc2cc(I)ccn2)cc1/C=C/c1cccc(-c2ccccc2)c1C` [Compound 79, (S,E)-1-(2-((4-Iodo-pyridin-2-yl)methoxy)-5-methyl-4-(2-(2-methyl-[1,1′-biphenyl]-3-yl)vinyl)benzyl)piperidine-2-carboxylic acid] was run?
The IC50 was 5.31 nM.

For `CS(=O)(=O)CCCOc1cc(/C=C/c2cccc(-c3ccccc3)c2C#N)c(CN2CCOC[C@H]2C(=O)O)cc1Cl` [Compound 37], which IC50 is on record?
Its IC50 is greater than 10000 nM.

With `Cc1c(/C=C/c2cc(OCc3cccc(I)c3)c(CN3CCCC[C@H]3C(=O)O)cc2C(F)(F)F)cccc1-c1ccccc1` [Compound 77] as the compound, how does the IC50 read?
Its IC50 is 5.91 nM.

How did the IC50 turn out when `[2H]c1c([2H])c([2H])c(-c2cccc(/C=C/c3cc(OC)c(CN4CCCC[C@H]4C(=O)O)cc3C(F)(F)F)c2C)c([2H])c1[2H]` [Compound 61, (S,E)-1-(2-Methoxy-4-(2-(2-methyl-[1,1′-biphenyl]-3-yl-2′,3′,4′,5′,6′-d5)vinyl)-5-trifluoromethylbenzyl)piperidine-2-carboxylic acid] was run?
The IC50 was 0.73 nM.

For `Cc1cc(CN2CCCC[C@H]2C(=O)O)c(OCCCF)cc1/C=C/c1cccc(-c2ccccc2)c1C` [Compound 84, (S,E)-1-(2-(3-Fluoropropoxy)-5-methyl-4-(2-(2-methyl-[1,1′-biphenyl]-3-yl)vinyl)benzyl)piperidine-2-carboxylic acid], which IC50 is on record?
The IC50 was 8.03 nM.

For `COCCOc1cc(/C=C/c2cccc(-c3ccccc3)c2C#N)c(CN[C@@](C)(CO)C(=O)O)cc1Cl` [Compound 35, (S,E)-2-((5-Chloro-2-(2-(2-cyano-[1,1′-biphenyl]-3-yl)vinyl)-4-(2-methoxyethoxy)benzyl)amino)-3-hydroxy-2-methylpropanoic acid], which IC50 is on record?
The IC50 was 1150 nM.

How did the IC50 turn out when `[2H]C([2H])([2H])OCc1cc(/C=C/c2cccc(-c3ccccc3)c2C#N)c(C(F)(F)F)cc1CN1CCOC[C@H]1C(=O)O` [Compound 54, (S,E)-4-(4-(2-(2-Cyano-[1,1′-biphenyl]-3-yl)vinyl)-2-((methoxy-d3)methyl)-5-trifluoromethylbenzyl)morpholine-3-carboxylic acid] was run?
Its IC50 is 160 nM.

With `COCc1cc(/C=C/c2cccc(-c3ccccc3)c2C#N)c(C(F)(F)F)cc1CN1CCCC[C@H]1C(=O)O` [Compound 49, (S,E)-1-(4-(2-(2-Cyano-[1,1′-biphenyl]-3-yl)vinyl)-2-(methoxymethyl)-5-trifluoromethylbenzyl)piperidine-2-carboxylic acid] as the compound, how does the IC50 read?
The IC50 was 18.6 nM.
